From ChEMBL document CHEMBL1201862, “PubChem BioAssay data set” (2004)
Active and inactive are the calls of the source.

How the values were obtained:
BJ [1] = assay: cytotoxicity toward BJ-TERT fibroblasts, dose response, cell-based, RAS-independent, luminescence (AID 1933); assay type: functional; settings: Homo sapiens
BJ [2] = assay: cells; assay type: functional, cell-based; settings: Homo sapiens
[3] = target: Luciferin 4-monooxygenase (Photinus pyralis, UniProt P08659); assay: firefly luciferase enzyme inhibitors, dose response, biochemical, luminescence (AID 1891)
[4] = Luminescence Cell-Based Dose Confirmation HTS to Identify Inhibitors of Platelet Dense Granule Release. [Related pubchem assays: 1663 (Primary HTS), 1678 (Summary of Project)]; assay type: functional
BJ [5] = assay: cytotoxicity toward BJ-TERT-LT-ST fibroblasts, dose response, cell-based, RAS-independent, luminescence (AID 1935); assay type: functional; settings: Homo sapiens;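 note: BJ fibroblasts immortalized with TERT plus LT and ST oncogenes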
[6] = cytotoxicity toward DRD oncogenic fibroblasts, dose response, cell-based, non-viral oncogenic, luminescence (AID 1934); assay type: functional; settings: Homo sapiens
[7] = inhibition of ADP-Glo detection reagents, dose response, artefact control for CDK5 inhibitor project, biochemical, luminescence, cherry-picked samples, set 2 (AID 504546); assay type: functional
[8] = target: T1, Microphthalmia-associated transcription factor (Homo sapiens, UniProt O75030); assay: TRPM1 promoter luciferase signal decrease, dose response, MITF inhibitor project, cell-based, SK-MEL-5, cherry-picked, set 3 (AID 493073); assay type: functional
T1 sequence (O75030 whole entry): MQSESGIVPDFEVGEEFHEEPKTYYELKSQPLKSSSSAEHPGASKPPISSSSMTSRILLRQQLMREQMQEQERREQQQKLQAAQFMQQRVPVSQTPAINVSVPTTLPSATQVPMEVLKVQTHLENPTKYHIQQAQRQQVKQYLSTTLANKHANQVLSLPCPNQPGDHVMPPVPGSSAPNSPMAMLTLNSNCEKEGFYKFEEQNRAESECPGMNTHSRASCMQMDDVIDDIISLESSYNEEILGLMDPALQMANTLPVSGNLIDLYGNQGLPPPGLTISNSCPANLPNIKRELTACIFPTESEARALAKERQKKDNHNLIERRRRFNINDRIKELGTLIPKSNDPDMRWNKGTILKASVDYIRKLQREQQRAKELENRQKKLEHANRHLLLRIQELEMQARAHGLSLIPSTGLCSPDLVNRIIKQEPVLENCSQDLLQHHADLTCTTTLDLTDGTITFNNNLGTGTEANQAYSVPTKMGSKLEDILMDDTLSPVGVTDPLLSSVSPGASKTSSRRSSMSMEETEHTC

[9] = ADP-Glo luciferase interference without Dyrk1A, dose response, artefact control for Dyrk1A inhibitor project, biochemical, luminescence, cherry-pick, set 02 (AID 588348)
[10] = target: Dual specificity tyrosine-phosphorylation-regulated kinase 1A (Rattus norvegicus, UniProt Q63470); assay type: biochemical, Homo sapiens
[11] = A549 cell cytotoxicity, dose response, cytotoxicity control, plate reader, cherry-pick, antagonist series (AID 743412); assay type: functional, cell-based
[12] = HepG2 cell cytotoxicity, dose response, cytotoxicity control, plate reader, cherry-pick, antagonist series (AID 743416); assay type: functional, cell-based
[13] = LGR2 antagonists, dose response, cell-based, HEK293, CRE-luciferase reporter, cherry pick, set 2 (AID 743343); assay type: functional;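 note: transfected cells were stimulated with diluted bursicon conditioned medium after compound addition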
[14] = MC4R antagonists, dose response, counter-screen for LGR2 antagonist project, cell-based, plate reader, cherry pick (AID 743444); assay type: functional;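 note: transfected HEK 293 cells stimulated with alpha-MSH peptide; potency of inhibitors of the alpha-MSH evoked signal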
[15] = HEK293 cell cytotoxicity, dose response, cytotoxicity control, plate reader, cherry-picked samples (AID 743446); assay type: functional, cell-based
Cytochrome P450 2C19 = Cytochrome P450 2C19 (Homo sapiens, UniProt P33261); assay: Cytochrome panel assay with activity outcomes. Panel member name: p450-cyp2c19 Compounds with AC50 equal or less than 10 uM are considered active; assay type: functional
Cytochrome P450 2D6 = Cytochrome P450 2D6 (Homo sapiens, UniProt P10635);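 note: CYP2D6 member of a cytochrome P450 panel assay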
HEK293 [16] = assay: inhibitors of LMP1-driven NF-kB reporter, dose response, cell-based, HEK293, luciferase, cherry-pick (AID 588343); assay type: functional; settings: Homo sapiens
H9c2 = assay: cells; assay type: functional, cell-based; settings: Rattus norvegicus, H9c2, Myocardium;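 note: confirmatory concentration-response retest of ultra-high-throughput screening hits for modulation of myocardial damage; cell death induced by hydrogen peroxide oxidative stress; compound pretreatment for 60 min then peroxide exposure for 2 h; potency is for protecting the cells against peroxide damage rather than for killing them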
[17] = target: Lysine-specific demethylase 4A (Homo sapiens, UniProt O75164); assay: JMJD2A histone demethylase inhibitors, dose response, selectivity assay for GASC-1 inhibitor project, biochemical, DELFIA europium, cherry-picked samples (AID 488840)
[18] = target: Heat shock protein HSP 90-alpha (Homo sapiens, UniProt P07900); assay type: functional, organism-based
HEK293 [19] = assay: cells; assay type: functional, cell-based; settings: Homo sapiens
[20] = target: Nuclear receptor subfamily 0 group B member 1 (Homo sapiens, UniProt P51843); assay: Luminescence-based cell-based high throughput dose response assay for inhibitors of the orphan nuclear receptor subfamily 0, group B, member 1 (DAX1; NR0B1). [Related pubchem assays (depositor defined):AID504766, AID504790]; assay type: functional
[21] = target: G-protein coupled receptor 35 (Homo sapiens, UniProt Q9HC97); assay: SAR Analysis for the identification of Selective Antagonists of ERK1/2 Activity in GPR35-Overexpressing U2OS Cells. [Related pubchem assays: 2079, 2058 ]; assay type: functional, cell-based
[22] = target: G-protein coupled receptor 55 (Homo sapiens, UniProt Q9Y2T6); assay: GPR55 antagonists, SAR follow-up, counter-screen for GPR35 antagonist project, imaging, image-based (AID 2397); assay type: functional
[23] = target: Tyrosine-protein phosphatase non-receptor type 7 (Homo sapiens, UniProt P35236); assay type: functional
[24] = target: Glyceraldehyde-3-phosphate dehydrogenase (Homo sapiens, UniProt P04406)
[25] = target: T2, Dual specificity protein phosphatase 6 (Rattus norvegicus, UniProt Q64346)
T2 sequence (Q64346 whole entry): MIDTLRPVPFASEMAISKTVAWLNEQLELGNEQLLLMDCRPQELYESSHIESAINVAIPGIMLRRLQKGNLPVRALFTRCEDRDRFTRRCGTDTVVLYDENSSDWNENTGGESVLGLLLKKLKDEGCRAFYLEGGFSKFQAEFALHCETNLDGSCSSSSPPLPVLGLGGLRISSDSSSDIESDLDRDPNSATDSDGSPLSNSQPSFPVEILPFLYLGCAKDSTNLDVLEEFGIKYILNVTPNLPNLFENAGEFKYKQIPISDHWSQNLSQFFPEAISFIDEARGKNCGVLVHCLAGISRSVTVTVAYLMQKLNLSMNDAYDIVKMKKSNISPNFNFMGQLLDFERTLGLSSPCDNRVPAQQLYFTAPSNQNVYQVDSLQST

[26] = target: T2, Dual specificity protein phosphatase 6; assay type: functional
[27] = Luminescence Cell-Based Dose Retest to Confirm Inhibitors of Cancer Stem Cells. [Related pubchem assays (depositor defined):AID2717, AID2721]; assay type: functional; settings: Homo sapiens
[28] = cytotoxicity in HMLE control line with eGFP shRNA, dose response, counter-screen for HMLE_sh_ECad selective toxicity project, cell-based, HMLE_sh_eGFP, luminescence (AID 463074); assay type: functional, Homo sapiens;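 note: HMLE human mammary epithelial cells expressing control shRNA against eGFP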
Cytochrome P450 2C9 = Cytochrome P450 2C9 (Homo sapiens, UniProt P11712)
Chain of Cytochrome P450 2C9 (P11712 whole entry): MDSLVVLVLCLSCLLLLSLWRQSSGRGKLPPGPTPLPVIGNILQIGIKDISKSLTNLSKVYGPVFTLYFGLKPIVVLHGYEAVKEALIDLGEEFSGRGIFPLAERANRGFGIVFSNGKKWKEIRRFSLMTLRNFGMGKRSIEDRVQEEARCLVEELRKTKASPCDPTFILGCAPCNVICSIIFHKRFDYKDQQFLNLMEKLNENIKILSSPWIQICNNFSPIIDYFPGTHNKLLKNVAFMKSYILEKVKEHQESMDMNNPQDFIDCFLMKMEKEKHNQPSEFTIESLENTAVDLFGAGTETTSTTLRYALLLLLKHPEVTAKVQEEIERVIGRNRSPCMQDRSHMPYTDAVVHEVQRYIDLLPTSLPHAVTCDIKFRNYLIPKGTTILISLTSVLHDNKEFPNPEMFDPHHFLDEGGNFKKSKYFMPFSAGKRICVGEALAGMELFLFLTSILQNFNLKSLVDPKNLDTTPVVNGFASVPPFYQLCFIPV

Chain of Lysine-specific demethylase 4A (O75164 whole entry): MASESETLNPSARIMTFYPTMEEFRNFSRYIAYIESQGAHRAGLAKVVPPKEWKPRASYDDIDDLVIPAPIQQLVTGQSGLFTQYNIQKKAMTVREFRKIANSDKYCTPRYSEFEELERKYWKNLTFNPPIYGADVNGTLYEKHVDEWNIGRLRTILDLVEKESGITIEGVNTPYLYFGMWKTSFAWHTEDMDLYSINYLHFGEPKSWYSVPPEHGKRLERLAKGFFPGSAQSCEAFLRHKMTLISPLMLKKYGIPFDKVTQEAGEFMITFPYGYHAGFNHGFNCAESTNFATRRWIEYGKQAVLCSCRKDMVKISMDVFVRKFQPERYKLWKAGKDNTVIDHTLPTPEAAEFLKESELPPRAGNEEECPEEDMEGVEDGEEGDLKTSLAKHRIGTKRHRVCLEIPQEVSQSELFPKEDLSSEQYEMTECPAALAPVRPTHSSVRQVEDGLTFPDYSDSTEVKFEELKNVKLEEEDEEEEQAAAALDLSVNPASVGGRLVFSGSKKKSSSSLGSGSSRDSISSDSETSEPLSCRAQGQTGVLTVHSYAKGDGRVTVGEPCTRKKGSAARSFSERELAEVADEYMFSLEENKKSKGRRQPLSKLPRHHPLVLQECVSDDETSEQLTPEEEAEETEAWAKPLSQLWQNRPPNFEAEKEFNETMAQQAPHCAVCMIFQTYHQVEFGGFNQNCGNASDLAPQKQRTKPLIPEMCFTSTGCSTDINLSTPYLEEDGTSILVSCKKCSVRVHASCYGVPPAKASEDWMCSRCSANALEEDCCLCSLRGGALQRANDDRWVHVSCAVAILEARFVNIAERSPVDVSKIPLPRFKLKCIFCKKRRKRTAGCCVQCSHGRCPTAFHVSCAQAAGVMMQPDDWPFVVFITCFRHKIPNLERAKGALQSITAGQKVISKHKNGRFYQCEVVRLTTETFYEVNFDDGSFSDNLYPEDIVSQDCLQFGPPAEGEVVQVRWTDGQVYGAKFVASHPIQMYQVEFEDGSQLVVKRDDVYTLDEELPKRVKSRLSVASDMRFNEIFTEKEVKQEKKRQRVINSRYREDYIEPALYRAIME
Chain of G-protein coupled receptor 35 (Q9HC97 whole entry): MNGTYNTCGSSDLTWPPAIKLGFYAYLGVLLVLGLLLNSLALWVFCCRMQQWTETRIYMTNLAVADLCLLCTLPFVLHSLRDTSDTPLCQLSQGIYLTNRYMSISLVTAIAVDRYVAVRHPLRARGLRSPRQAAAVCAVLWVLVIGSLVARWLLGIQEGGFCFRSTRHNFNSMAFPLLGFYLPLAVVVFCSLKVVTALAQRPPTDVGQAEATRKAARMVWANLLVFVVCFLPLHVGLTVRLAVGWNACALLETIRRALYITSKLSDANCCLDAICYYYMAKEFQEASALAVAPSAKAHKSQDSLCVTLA
Chain of Cytochrome P450 2C19 (P33261 whole entry): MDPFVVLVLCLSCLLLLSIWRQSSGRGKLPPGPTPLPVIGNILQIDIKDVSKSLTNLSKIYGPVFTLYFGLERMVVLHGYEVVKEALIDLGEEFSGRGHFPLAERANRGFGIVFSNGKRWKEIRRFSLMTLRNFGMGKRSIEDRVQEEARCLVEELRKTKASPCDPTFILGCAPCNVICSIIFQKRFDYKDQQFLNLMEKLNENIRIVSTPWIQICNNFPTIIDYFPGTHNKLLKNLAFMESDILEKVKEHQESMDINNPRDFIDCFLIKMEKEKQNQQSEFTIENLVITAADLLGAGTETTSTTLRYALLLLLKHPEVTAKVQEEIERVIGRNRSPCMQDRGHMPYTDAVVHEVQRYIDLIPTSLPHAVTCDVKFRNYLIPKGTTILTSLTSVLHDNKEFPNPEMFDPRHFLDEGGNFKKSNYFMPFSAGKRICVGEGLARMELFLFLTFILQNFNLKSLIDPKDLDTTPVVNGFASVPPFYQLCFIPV
Chain of Luciferin 4-monooxygenase (P08659 whole entry): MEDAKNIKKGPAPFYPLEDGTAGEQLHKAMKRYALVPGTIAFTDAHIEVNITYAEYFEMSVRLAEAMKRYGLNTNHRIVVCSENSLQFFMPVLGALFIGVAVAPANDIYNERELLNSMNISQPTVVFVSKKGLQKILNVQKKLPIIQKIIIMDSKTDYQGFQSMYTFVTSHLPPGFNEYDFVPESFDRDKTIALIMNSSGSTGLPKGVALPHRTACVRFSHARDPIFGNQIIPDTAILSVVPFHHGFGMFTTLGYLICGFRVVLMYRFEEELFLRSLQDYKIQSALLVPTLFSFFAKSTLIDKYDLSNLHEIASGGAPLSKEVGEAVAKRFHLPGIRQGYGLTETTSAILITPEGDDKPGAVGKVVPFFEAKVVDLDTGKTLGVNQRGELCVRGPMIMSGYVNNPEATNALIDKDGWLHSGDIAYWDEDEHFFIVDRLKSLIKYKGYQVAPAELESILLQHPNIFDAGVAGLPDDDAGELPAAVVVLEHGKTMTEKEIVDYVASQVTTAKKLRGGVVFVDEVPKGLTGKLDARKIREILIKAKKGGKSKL
Chain of Tyrosine-protein phosphatase non-receptor type 7 (P35236 whole entry): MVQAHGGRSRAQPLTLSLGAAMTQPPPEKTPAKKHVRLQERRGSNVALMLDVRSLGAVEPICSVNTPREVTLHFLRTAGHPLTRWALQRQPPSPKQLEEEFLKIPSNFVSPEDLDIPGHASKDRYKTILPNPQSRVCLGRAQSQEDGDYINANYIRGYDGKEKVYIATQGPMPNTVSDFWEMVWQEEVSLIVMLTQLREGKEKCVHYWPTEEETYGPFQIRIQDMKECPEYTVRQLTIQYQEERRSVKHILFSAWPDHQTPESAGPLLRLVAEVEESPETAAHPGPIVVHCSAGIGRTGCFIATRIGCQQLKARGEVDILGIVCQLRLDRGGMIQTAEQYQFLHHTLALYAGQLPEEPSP
Chain of Cytochrome P450 2D6 (P10635 whole entry): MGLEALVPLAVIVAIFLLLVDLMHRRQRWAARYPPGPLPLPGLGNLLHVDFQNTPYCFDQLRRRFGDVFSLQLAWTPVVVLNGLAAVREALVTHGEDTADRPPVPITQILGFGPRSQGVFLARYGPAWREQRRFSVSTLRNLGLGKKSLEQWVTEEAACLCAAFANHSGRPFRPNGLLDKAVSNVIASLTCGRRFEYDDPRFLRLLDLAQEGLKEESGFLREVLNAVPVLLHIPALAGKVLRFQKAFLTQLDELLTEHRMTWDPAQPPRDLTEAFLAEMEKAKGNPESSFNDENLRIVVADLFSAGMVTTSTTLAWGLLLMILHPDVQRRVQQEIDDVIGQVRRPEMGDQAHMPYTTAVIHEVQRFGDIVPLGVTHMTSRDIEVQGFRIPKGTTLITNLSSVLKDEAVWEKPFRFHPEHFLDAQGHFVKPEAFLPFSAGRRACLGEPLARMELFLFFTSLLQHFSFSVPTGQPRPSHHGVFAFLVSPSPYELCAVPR
Chain of G-protein coupled receptor 55 (Q9Y2T6 whole entry): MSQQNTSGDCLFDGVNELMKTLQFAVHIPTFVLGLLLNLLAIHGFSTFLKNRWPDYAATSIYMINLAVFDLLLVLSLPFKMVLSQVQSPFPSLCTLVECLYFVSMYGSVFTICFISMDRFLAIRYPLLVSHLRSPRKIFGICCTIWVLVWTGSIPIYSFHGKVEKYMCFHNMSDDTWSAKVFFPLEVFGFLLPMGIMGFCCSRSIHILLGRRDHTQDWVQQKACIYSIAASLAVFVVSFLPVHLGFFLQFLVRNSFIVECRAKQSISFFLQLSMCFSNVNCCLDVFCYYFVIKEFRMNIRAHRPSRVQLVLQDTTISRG
Chain of Nuclear receptor subfamily 0 group B member 1 (P51843 whole entry): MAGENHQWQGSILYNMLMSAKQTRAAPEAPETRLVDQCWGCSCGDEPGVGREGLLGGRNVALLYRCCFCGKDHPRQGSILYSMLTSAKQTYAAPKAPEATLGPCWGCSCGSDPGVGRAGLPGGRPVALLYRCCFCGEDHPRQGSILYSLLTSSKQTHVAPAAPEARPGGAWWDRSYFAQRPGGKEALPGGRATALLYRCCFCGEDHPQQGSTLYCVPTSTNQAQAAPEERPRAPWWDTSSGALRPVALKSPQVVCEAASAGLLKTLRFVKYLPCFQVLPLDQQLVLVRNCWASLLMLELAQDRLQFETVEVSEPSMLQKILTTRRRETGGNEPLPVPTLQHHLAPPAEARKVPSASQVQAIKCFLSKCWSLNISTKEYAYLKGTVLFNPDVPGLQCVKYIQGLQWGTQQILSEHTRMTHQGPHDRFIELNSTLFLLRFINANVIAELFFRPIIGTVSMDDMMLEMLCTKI
Chain of Glyceraldehyde-3-phosphate dehydrogenase (P04406 whole entry): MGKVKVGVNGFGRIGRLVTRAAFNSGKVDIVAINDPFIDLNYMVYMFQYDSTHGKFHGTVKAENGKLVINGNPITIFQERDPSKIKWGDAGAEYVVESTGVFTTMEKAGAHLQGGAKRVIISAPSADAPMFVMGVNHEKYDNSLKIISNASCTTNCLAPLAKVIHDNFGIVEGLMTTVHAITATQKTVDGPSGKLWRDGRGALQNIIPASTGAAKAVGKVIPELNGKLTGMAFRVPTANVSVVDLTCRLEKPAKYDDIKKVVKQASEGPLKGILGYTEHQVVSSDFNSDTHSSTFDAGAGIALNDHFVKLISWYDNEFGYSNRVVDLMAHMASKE

With `CCOc1ccc(-c2ccc(SC)nn2)cc1` the EC50 (BJ [1]) was 11.5 µM (active), the EC50 (BJ [2]) was 9.15 µM (active) and the EC50 [3] was 2.3 µM (active). The EC50 [4] was 1.74 µM (active), the EC50 (BJ [5]) was > 150 µM (not active) and the EC50 [6] was 9.86 µM (active). The AC50 [7] was 76.7 µM (active), the AC50 [8] was 5.17 µM (active) and the AC50 [9] was 26.1 µM (active). For the same compound, the AC50 [10] was 20.8 µM (active), the AC50 [11] was 18.6 µM (active) and the AC50 [12] was 15 µM (active). For the same compound, the AC50 [13] was 3.05 µM (active), the AC50 [14] was 2.36 µM (active) and the AC50 [15] was 14 µM (active).
With `CC1=C(C(=O)O)N2C(=O)[C@@H](NC(=O)[C@@H](N)C3=CCC=CC3)[C@@H]2SC1` the AC50 (Cytochrome P450 2C19) was “inconclusive” and the AC50 (Cytochrome P450 2D6) was “inconclusive”.
For `CCn1nc(C(=O)Nc2nc(-c3ccccn3)cs2)c2ccccc2c1=O`, the AC50 (HEK293 [16]) was 11.4 µM (active) and the IC50 (H9c2) was 16.2 µM (active).
For `CN(C(=O)c1ccc(NC(=O)Cc2ccc(NC(=O)C3CCN(C(=O)C4CCC4)CC3)cc2)cc1)C1CC1`, the AC50 [17] was > 60 µM (inactive).
For `N/C(Cc1ccc(Cl)cc1)=N\OC(=O)c1cccc2ccccc12`, the AC50 [18] was 1.8 µM (active).
With `Cc1ccc2nc3c(cc2c1)c(NC(=O)c1ccco1)nn3CC(C)C` the IC50 (HEK293 [19]) was > 67.5 µM (inactive) and the IC50 [20] was > 67.5 µM (inactive).
With `O=C(Nc1ccc2nc(SCc3ccccc3)sc2c1)c1ccccc1C(=O)N1CCOCC1` the IC50 [21] was 4.58 µM (active) and the IC50 [22] was 12.3 µM (inactive).
For `CCC(CC)c1nnc(NC(=O)Cc2cccs2)s1`, the IC50 [23] was 88 µM (active), the IC50 [24] was 99.7 µM (active) and the IC50 [25] was > 100 µM (inactive). For the same compound, the IC50 [26] was > 100 µM (inactive).
With `Cc1nn(-c2ccc(F)cc2)c(Cl)c1/C=C(\CCC(=O)O)c1nc2ccccc2s1` the AC50 [27] was 18.7 µM (active), the AC50 [28] was 23.5 µM (active) and the AC50 (Cytochrome P450 2C9) was 39.8 µM (inconclusive).
